According to US11000033B2, “Ketone or oxime compound, and herbicide” (NISSAN CHEMICAL CORPORATION, priority 2014, dated 2021):

Columns and labels:
Type in all cases: in vivo
[1] = system: Scirpus juncoides; test: Test Example 2: herbicidal activity, application during weed generation in submerged conditions (symbol B); settings: Table 23; application herbicide amount 320 g/ha; grade 0-5 by criteria of Test Example 1
How it was run: (§1)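 Scoring of herbicidal effect took place 3 weeks after treatment, using the criteria of the earlier test. Treatment was water-surface application of diluted emulsifiable compound at a set dose. Plants were at one- to two-leaf stage in submerged alluvial soil (4 cm depth), greenhouse 25-30° C.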

[2] = system: Abutilon theophrasti; test: Test Example 5: herbicidal effect by foliage application, plastic box (symbol M); settings: 320 g/ha, 3 weeks after application
How it was run: (§2)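 After sowing into sterilized diluvial soil and growing two weeks under glass at 25° C. to 30° C., seedlings receive a uniform foliar spray of diluted emulsion. Damage is judged visually three weeks on.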

[3] = system: Echinochloa oryzacola Vasing.; test: Test Example 2: herbicidal activity, application during weed generation in submerged conditions (symbol A); settings: Table 23; application herbicide amount 320 g/ha; grade 0-5 by criteria of Test Example 1
How it was run: as §1

[4] = system: Galium spurium; test: Test Example 4: herbicidal effect by soil treatment (symbol Q); settings: application herbicide amount 320 g/ha
How it was run: (§3)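 Seeds were sown in sterilized diluvial soil, covered with about 1.5 cm of soil, and the soil surface was sprayed with a water-diluted emulsion of the compound at a predetermined rate. Plants grew in a greenhouse at 25° C. to 30° C.; effects were scored visually 3 weeks after application.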

[5] = system: Digitaria ciliaris; test: Test Example 4: herbicidal effect by soil treatment (symbol F); settings: application herbicide amount 320 g/ha
How it was run: as §3

[6] = system: Monochoria vaginalis; test: Test Example 2: herbicidal activity, application during weed generation in submerged conditions (symbol C); settings: Table 23; application herbicide amount 320 g/ha; grade 0-5 by criteria of Test Example 1
How it was run: as §1

[7] = system: Abutilon theophrasti; test: Test Example 4: herbicidal effect by soil treatment (symbol M); settings: application herbicide amount 320 g/ha
How it was run: as §3

[8] = system: Alopecurus myosuroides; test: Test Example 4: herbicidal effect by soil treatment (symbol J); settings: application herbicide amount 320 g/ha
How it was run: as §3

[9] = system: rapeseed; test: Test Example 5: effect on crop by foliage application, plastic box (symbol g); settings: 320 g/ha, 3 weeks after application
How it was run: (§4)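 Greenhouse test at 25° C. to 30° C. Seeds of crops and weeds were spot-sown in boxes of sterilized diluvial soil under roughly 1.5 cm soil cover, then grown for foliage treatment.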

[10] = system: rice; test: Test Example 4: effect on crop by soil treatment (symbol b); settings: application herbicide amount 320 g/ha
How it was run: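 Crop seeds, among them rice, wheat, beet and rapeseed, were sown in sterilized diluvial soil and covered with about 1.5 cm of soil. Boxes were kept in a greenhouse at 25° C. to 30° C. for plant growth.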

[11] = system: beet; test: Test Example 5: effect on crop by foliage application, plastic box (symbol f); settings: 320 g/ha, 3 weeks after application
How it was run: as §4

[12] = system: Amaranthus retroflexus; test: Test Example 5: herbicidal effect by foliage application, plastic box (symbol N); settings: 320 g/ha, 3 weeks after application
How it was run: as §2

[13] = system: Echinochloa oryzacola Vasing.; test: Test Example 1: herbicidal activity, application before weed generation in submerged conditions (symbol A); settings: application herbicide amount 320 g/ha
How it was run: (§5)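 Compound emulsion was diluted to a set herbicide amount and applied to the water surface on the sowing day, into submerged (4 cm) alluvial-soil pots sown with mixed weed seeds and transplanted 2.5-leaf rice. Pots were held in a 25–30 °C greenhouse, and weeds were scored 0–5 by herbicidal ratio after 3 weeks.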

[14] = system: Avena fatua; test: Test Example 4: herbicidal effect by soil treatment (symbol I); settings: application herbicide amount 320 g/ha
How it was run: as §3

[15] = system: Monochoria vaginalis; test: Test Example 1: herbicidal activity, application before weed generation in submerged conditions (symbol C); settings: application herbicide amount 320 g/ha
How it was run: as §5

[16] = system: Echinochloa crus-galli var. crus-galli; test: Test Example 5: herbicidal effect by foliage application, plastic box (symbol H); settings: 320 g/ha, 3 weeks after application
How it was run: as §2

Row | Structure (SMILES) | Herbicidal effect grade, B: Scirpus juncoides [1] | M: Abutilon theophrasti, herbicidal effect grade [2] | Herbicidal effect grade, A: Echinochloa oryzacola Vasing. [3] | Q (Galium spurium) herbicidal effect grade [4] | F (Digitaria ciliaris) herbicidal effect grade [5] | Herbicidal effect grade, C: Monochoria vaginalis [6] | M (Abutilon theophrasti) herbicidal effect grade [7] | J (Alopecurus myosuroides) herbicidal effect grade [8] | g: rapeseed, effect on crop grade [9] | b (directly sowed rice plant) effect on crop grade [10] | f: beet, effect on crop grade [11] | N: Amaranthus retroflexus, herbicidal effect grade [12] | Herbicidal effect grade, A: Echinochloa oryzacola Vasing. [13] | I (Avena fatua) herbicidal effect grade [14] | Herbicidal effect grade, C: Monochoria vaginalis [15] | H: Echinochloa crus-galli var. crus-galli, herbicidal effect grade [16]
1 | CON=C(C)CC1CC(OC(=O)COc2ccccc2)=C(c2c(C)cc(C)cc2C)C1=O (centres unmarked) [1-043] | 5 (Herbicidal ratio of 90% or more (almost completely withered)) | 4 (Herbicidal ratio of 70% or higher and lower than 90%) | 5 (Herbicidal ratio of 90% or more (almost completely withered)) | 0 (Herbicidal ratio of 5% or lower (almost no effect)) | 5 (Herbicidal ratio of 90% or more (almost completely withered)) | 3 (Herbicidal ratio of 40% or higher and lower than 70%) | 4 (Herbicidal ratio of 70% or higher and lower than 90%) | 5 (Herbicidal ratio of 90% or more (almost completely withered)) | 4 (Herbicidal ratio of 70% or higher and lower than 90%) | 5 (Herbicidal ratio of 90% or more (almost completely withered)) | 3 (Herbicidal ratio of 40% or higher and lower than 70%) | 3 (Herbicidal ratio of 40% or higher and lower than 70%) | 5 (Herbicidal ratio of 90% or more (almost completely withered)) | 4 (Herbicidal ratio of 70% or higher and lower than 90%) | 2 (Herbicidal ratio of 20% or higher and lower than 40%) | 5 (Herbicidal ratio of 90% or more (almost completely withered))
2 | CON=C(C)CC1CC(OCC#C[Si](C)(C)C)=C(c2c(C)cc(C)cc2C)C1=O (centres unmarked) [1-031] | 2 (Herbicidal ratio of 20% or higher and lower than 40%) | 0 (Herbicidal ratio of 5% or lower (almost no effect)) | 5 (Herbicidal ratio of 90% or more (almost completely withered)) | 0 (Herbicidal ratio of 5% or lower (almost no effect)) | 0 (Herbicidal ratio of 5% or lower (almost no effect)) | 0 (Herbicidal ratio of 5% or lower (almost no effect)) | 0 (Herbicidal ratio of 5% or lower (almost no effect)) | 0 (Herbicidal ratio of 5% or lower (almost no effect)) | 3 (Herbicidal ratio of 40% or higher and lower than 70%) | 0 (Herbicidal ratio of 5% or lower (almost no effect)) | 0 (Herbicidal ratio of 5% or lower (almost no effect)) | 0 (Herbicidal ratio of 5% or lower (almost no effect)) | 5 (Herbicidal ratio of 90% or more (almost completely withered)) | 0 (Herbicidal ratio of 5% or lower (almost no effect)) | 2 (Herbicidal ratio of 20% or higher and lower than 40%) | 1 (Herbicidal ratio of 5% or higher and lower than 20%)
